Results: publication PMC5814047, “Peptidic inhibitors of insulin-degrading enzyme with potential for dermatological applications discovered via phage display” (PLoS ONE, 2018)
Several values for one entry are separate records, joined by “and”; a condition that tells them apart may be missing. Equal values may be shown once. Read-outs that look alike come from different tables or passages of the source. Bridge positions count the residues as written; N and C are the ends. Ends that are not written are not given here. Peptide text beside a SMILES is read from it.

Target: T1, IDE (Homo sapiens, UniProt P14735)
T1 construct: made in house; host or cells: bacteria
T1 sequence (P14735 1-1019): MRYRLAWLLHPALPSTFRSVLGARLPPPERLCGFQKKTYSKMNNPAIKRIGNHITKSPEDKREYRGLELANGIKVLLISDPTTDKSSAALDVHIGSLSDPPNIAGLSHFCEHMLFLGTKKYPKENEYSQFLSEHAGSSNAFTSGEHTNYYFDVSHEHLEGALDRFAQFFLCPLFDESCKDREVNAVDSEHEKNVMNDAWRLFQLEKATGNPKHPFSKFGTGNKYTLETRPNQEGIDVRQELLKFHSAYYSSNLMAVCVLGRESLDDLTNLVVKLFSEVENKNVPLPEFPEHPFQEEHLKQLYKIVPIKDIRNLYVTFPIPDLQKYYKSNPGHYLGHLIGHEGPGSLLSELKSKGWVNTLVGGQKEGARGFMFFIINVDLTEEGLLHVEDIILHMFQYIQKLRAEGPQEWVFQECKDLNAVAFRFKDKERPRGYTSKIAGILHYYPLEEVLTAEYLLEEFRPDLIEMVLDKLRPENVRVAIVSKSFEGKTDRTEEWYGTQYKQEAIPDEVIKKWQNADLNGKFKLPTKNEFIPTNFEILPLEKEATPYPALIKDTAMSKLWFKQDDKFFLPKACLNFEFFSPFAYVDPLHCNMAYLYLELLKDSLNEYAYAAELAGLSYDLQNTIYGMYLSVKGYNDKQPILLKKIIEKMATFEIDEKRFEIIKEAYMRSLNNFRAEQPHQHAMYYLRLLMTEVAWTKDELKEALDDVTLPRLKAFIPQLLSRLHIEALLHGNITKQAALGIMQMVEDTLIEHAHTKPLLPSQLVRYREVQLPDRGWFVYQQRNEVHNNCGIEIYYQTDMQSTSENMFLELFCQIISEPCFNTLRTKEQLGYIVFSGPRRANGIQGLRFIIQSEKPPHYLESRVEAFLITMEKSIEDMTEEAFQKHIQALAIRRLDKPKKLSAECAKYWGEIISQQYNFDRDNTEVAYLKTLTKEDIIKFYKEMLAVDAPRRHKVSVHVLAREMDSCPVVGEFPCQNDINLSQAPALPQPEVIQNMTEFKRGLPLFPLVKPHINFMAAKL
Assay: biochemical
Settings: for IC50: FRET1; for IC50 <500 uM?: initial test at 500 uM
How it was run: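 Recombinant human IDE (1 nM, bacterially expressed) degraded FRET1 substrate (5 μM), fluoresceinated biotinylated amyloid β (500 nM) or human insulin (50 nM) in PBS with 0.05% BSA. Peptides tested included N-acetylated and C-amidated variants.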

[1] = Cheng-Prusoff, KM 10 uM, substrate concentration 5 uM, read-out: Ki values, Mean
[2] = dose-response, individual runs, read-out: Percent Activity (normalized source data)
[3] = dose-response, read-out: IC50s, Mean
[4] = initial test, percent of initial velocity relative to DMSO-only controls, individual replicates, read-out: Percent activity at 500 uM, Replicate 1-4
[5] = judged as IC50 <100 uM?, individual replicates, read-out: Percent activity at 500 uM, Replicate 1-4
[6] = substrate FRET1 5 μM, Ki from IC50 with the Cheng-Prusoff equation, read-out: Ki FRET1
[7] = dose-response, 500 uM, individual runs, read-out: Percent Activity (normalized source data)
[8] = dose-response, individual runs, read-out: IC50s, Run 1-6

Row | Ki [1] | remaining activity at 31.25 µM [2] | IC50 [3] | IC50 <500 uM? | remaining activity at 500 µM [4] | remaining activity at 500 µM [5] | Ki [6] | remaining activity at 0.12207 µM (dose-response, 0.12207 uM, individual runs, read-out: Percent Activity (normalized source data)) | remaining activity at 0.488281 µM [2] | remaining activity at 1.95312 µM (dose-response, 1.95312 uM, individual runs, read-out: Percent Activity (normalized source data)) | remaining activity at 7.8125 µM (dose-response, 7.8125 uM, individual runs, read-out: Percent Activity (normalized source data)) | remaining activity at 125 µM (dose-response, 125 uM, individual runs, read-out: Percent Activity (normalized source data)) | remaining activity at 500 µM (initial test, percent of initial velocity relative to DMSO-only controls, N 4, read-out: Percent activity at 500 uM, Mean) | remaining activity at 500 µM (judged as IC50 <100 uM?, N 4, read-out: Percent activity at 500 uM, Mean) | remaining activity at 500 µM [7] | IC50 [8] | Compound
1 | 3.93 µM | 46.9% | 5.89 µM | YES | 8.6% | 15.5% | 3.9 ± 0.5 µM | – | – | – | – | – | – | – | – | – | WSPISGKFFQRF [P12-4]
2 | – | 34.6% | – | YES | – | – | – | 91.1% | 84.5% | 84.4% | 65.6% | 11% | 2% | 13.9% | – | – | CC(C)C[C@H](NC(=O)[C@H](CO)NC(=O)[C@@H](N)CCC(N)=O)C(=O)N1CCC[C@H]1C(=O)N[C@@H](Cc1c[nH]c2ccccc12)C(=O)N[C@H]1CSSC[C@@H](C(=O)N[C@H](C(=O)N[C@H](C(=O)O)[C@@H](C)O)C(C)C)NC(=O)[C@H](Cc2c[nH]cn2)NC(=O)[C@@H]2CCCN2C(=O)[C@H](Cc2ccc(O)cc2)NC1=O [P12-3] (H-QSLPWCYPHCVT-OH; disulfide 6-10 (inferred))
3 | 7.71 µM | – | 11.6 µM | YES | – | 17.6% | 7.7 ± 0.7 µM | – | – | – | – | – | – | – | 0.0455% | 11.6 µM and 9.84 µM and 13.2 µM | VHWDFRQWWQPS [P12-1]
4 | 5.3 µM | – | 7.95 µM | YES | – | – | 5 ± 0.3 µM | – | 88.4% | – | – | – | – | – | 1.11% | – | VHWDFRQWWQPS-NH2 [P12-1A]
5 | 39.4 µM | – | 59.2 µM | YES | 13.7% | 27.1% | 39 ± 20 µM | – | – | – | – | – | – | – | – | 25.6 µM and 32.5 µM | QSLPWCYP-NH2 [P12-3B]
